Source: US20210179598A1, “SELECTIVE JAK2 INHIBITOR AND APPLICATION THEREOF” (EAST CHINA UNIVERSITY OF SCIENCE AND TECHNOLOGY, priority 2018, published 2021)
Read-outs that look alike come from different tables or passages of the source.

Key:
H3122 cells = assay: CCK-8 cell proliferation detection, H3122 cells; type: cell-based
Excerpt: (§1) WST-8 (chemical name: 2-(2-methoxy-4-nitrophenyl)-3-(4-nitrophenyl)-5-(2,4-disulfo benzene)-2H-tetrazolium monosodium), which is reduced to a highly water-soluble yellow formazan product (Formazan dye) by the dehydrogenase in cells under the action of the electron carrier dimethyl 1-methoxy-5-methylphenazinium sulfate (1-Methoxy PMS). The amount of the produced formazan is proportional to the number of living cells. Therefore, the survival rate of cells can be calculated indirectly by measuring the absorbance at 450 nm. The half inhibition rate of the compound on the proliferation of H3122, SET2, HEL cells can be determined by the CCK-8 method.
(§2) RPIM medium containing 10% FBS was used to culture cells (100 μL per well), and 3500 cells were inoculated into a 96-well plate, and placed in a 37° C., 5% CO2 incubator for 24 h, until 50%-70% of the cell confluence was achieved. Drugs with different concentration gradients were added respectively, and incubated for another 72 hrs. […] And finally the absorption value of each well was measured at 450 nm.
(§3) NOTE: HEL, SET-2, H3122 cells were purchased from ATCC (American type culture collection), Z′-LYTETM kinase assay platform was purchased from Invitrogen, HTRF KinEASETM-TK was purchased from Cisbio, and Cell Counting Kit-8 was purchased from Beyotime.

ALK = ALK (Homo sapiens, UniProt Q9UM73); assay: ALK kinase IC50 test (HTRF); type: biochemical
Chain of ALK (Q9UM73 19-1620, species assumed): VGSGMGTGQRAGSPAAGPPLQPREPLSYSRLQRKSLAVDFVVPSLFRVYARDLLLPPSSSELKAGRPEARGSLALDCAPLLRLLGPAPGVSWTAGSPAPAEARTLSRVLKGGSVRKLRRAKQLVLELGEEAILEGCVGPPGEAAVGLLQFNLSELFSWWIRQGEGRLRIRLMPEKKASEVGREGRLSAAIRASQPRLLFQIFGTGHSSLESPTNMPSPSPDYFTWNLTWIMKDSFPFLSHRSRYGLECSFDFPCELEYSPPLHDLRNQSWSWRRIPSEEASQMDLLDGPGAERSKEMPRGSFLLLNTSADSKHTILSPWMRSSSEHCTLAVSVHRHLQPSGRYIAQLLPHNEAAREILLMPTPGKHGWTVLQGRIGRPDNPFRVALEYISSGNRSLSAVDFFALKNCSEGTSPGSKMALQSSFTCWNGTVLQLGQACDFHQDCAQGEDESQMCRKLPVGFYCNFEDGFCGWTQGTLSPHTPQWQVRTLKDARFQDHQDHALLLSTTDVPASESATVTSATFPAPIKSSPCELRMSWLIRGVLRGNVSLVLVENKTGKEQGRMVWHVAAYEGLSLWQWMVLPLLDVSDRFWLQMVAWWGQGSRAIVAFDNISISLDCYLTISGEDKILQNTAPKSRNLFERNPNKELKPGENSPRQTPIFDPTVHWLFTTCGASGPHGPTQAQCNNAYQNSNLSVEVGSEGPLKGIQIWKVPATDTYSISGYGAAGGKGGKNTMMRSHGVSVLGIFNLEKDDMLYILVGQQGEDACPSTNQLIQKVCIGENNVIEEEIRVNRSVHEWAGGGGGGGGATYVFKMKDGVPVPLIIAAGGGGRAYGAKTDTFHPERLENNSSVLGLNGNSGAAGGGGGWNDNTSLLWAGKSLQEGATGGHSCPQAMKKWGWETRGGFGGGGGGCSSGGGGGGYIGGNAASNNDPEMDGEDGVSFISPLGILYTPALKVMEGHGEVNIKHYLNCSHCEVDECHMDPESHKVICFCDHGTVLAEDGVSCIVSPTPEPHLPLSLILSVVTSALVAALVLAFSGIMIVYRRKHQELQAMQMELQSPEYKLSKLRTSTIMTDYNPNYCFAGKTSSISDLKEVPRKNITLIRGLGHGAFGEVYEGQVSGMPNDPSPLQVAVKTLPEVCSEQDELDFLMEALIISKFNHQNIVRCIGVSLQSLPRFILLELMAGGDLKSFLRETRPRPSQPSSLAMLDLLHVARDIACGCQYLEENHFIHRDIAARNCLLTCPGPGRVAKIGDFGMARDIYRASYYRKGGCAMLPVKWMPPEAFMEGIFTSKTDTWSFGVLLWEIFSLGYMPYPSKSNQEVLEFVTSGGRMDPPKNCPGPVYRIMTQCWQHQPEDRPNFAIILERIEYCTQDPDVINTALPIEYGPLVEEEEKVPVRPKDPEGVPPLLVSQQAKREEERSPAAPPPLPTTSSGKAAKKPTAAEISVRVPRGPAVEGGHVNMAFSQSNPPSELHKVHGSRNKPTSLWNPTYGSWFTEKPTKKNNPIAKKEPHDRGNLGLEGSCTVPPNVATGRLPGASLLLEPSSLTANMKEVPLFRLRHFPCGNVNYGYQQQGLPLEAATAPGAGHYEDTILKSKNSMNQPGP
Excerpt: According to HTRF method, the peptide substrate was labeled with a biotin, which can specifically bind to XL665-labeled streptavidin. When the kinase adds a phosphate group to the polypeptide substrate in the first step, its Eu-labeled specific phosphorylation antibody can recognize and bind to it. In this way, in the second step of detection, a complex of XL665-labeled streptavidin, phosphorylated peptide substrate and Eu-labeled phosphorylation antibody can be formed. Since the distance between XL665 and Eu is short, FRET can be formed. On the other hand, Eu has a relatively long fluorescence half-life and can be applied to time-resolved fluorescence detection.
10 μL of reaction system, 4 μL test compound, 2 μL kinase, 2 μL biotin-labeled substrate and 2 μL ATP, was added into a 384-well plate, shaken for 30 s, and incubated at room temperature for 1 hour. 5 μL of Eu-labeled phosphorylation site-specific antibody and 5 μL of XL665-labeled streptavidin were added. The reaction system was shaken for 30 s, and incubated at room temperature for 1 hour. A microplate reader was used to detect the fluorescence signal. The inhibition rates of the compounds under 8 concentration gradients were determined, and the IC50 value of each compound was calculated by fitting curve with Origin 8.0. […] Each experiment was performed in triplicate.
as §3

HEL (JAK2 V617F) cells = assay: CCK-8 cell proliferation detection, HEL cells; type: cell-based; settings: Homo sapiens, Table 2, CCK-8, 72 hrs
Excerpt: as §1, §2, §3

SET 2 (JAK2 V617F) cells = assay: CCK-8 cell proliferation detection, SET2 cells; type: cell-based; settings: Homo sapiens, Table 2, CCK-8, 72 hrs
Excerpt: as §1, §2, §3

JAK2 = JAK2 (Homo sapiens, UniProt O60674); assay: JAK2 kinase activity test at molecular level (Z'-LYTE FRET); type: biochemical
Chain of JAK2 (O60674 whole entry): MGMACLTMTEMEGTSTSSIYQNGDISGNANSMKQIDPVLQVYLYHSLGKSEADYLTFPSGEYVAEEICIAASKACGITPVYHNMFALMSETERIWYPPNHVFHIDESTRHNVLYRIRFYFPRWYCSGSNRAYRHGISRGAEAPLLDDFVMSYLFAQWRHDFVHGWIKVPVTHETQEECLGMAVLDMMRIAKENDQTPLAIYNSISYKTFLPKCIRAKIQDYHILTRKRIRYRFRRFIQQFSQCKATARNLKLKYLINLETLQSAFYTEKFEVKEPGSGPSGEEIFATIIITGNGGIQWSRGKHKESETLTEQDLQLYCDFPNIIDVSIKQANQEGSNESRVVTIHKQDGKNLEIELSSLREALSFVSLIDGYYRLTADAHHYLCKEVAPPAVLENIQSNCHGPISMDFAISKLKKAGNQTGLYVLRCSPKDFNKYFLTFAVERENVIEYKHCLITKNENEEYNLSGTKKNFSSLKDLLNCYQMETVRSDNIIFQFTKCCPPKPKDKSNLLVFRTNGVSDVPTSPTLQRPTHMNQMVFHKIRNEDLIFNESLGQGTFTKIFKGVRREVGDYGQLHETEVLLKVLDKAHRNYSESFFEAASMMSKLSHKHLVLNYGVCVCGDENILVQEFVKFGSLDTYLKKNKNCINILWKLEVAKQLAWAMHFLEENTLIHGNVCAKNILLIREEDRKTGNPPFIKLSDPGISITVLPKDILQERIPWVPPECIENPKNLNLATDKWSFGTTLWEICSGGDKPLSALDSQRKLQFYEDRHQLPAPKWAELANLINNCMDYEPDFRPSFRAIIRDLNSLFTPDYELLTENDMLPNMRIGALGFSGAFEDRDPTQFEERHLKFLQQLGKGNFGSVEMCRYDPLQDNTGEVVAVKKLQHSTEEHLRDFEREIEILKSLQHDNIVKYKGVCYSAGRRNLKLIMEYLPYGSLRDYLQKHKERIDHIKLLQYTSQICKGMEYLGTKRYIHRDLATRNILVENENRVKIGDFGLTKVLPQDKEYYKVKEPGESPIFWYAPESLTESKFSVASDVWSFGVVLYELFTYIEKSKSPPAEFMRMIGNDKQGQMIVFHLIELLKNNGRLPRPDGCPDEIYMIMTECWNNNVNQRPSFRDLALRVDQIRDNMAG
Procedure: JAK2 can catalyze the transfer of a phosphate group of adenosine triphosphate (ATP) to a polypeptide substrate, and the polypeptide substrate is labeled with two fluorescent groups, coumarin and fluorescein. […] Therefore, the inhibition rates of different compounds can be calculated by measuring the ratio of enzyme-catalyzed substrate phosphorylation percentages.
10 μL reaction system, 2.5 μL test compound, 5 μL kinase/peptide substrate mixture and 2.5 μL ATP solution were added into a 384-well plate, shaken for 30 s, and incubated at room temperature for 1 hour. 5 μL of proteolytic enzyme and 15 μL of the reaction system were added and shaken for 30 s and incubated at room temperature for 1 h. 5 μL of stop reagent was added, and the reaction system with a total volume of 20 μL was shaken for 30 seconds. A microplate reader was used to detect the fluorescence signal. […] The inhibition rates of the compound at 7 concentration gradients were determined, and the IC50 value for each compound was calculated by fitting curve with Origin 8.0.
as §3

[1] = Homo sapiens, NCI-H3122, Table 4, configurations of MXY-193
[2] = Table 4, configurations of MXY-193
[3] = Homo sapiens, NCI-H3122, 72 h, Table 2, CCK-8, 72 hrs
[4] = Homo sapiens, NCI-H3122, Table 2, CCK-8, 72 hrs
[5] = Table 1, read-out: JAK2 kinase activity IC50

IC50 (H3122 cells; [1]) [µM] | IC50 (ALK; [2]) [µM] | IC50 (H3122 cells; [2]) [µM] | IC50 (H3122 cells; [3]) [µM] | IC50 (JAK2; Table 2, read-out: JAK2 IC50) [nM] | IC50 (H3122 cells; [4]) [µM] | IC50 (ALK; Table 2) [µM] | IC50 (JAK2; [5]) [nM] | Compound | IC50 (HEL (JAK2 V617F) cells; 72 h) [µM] | IC50 (SET 2 (JAK2 V617F) cells; SET-2, 72 h) [µM] | IC50 (HEL (JAK2 V617F) cells) [µM] | IC50 (SET 2 (JAK2 V617F) cells; SET-2) [µM]
 |  |  |  |  | 0.988 ± 0.047 | 0.132 |  | COc1ncc(F)cc1C(C)Oc1cc(-c2cnn(C3CCNCC3)c2)cnc1N (centres unmarked) [MXY-111] |  |  | 12.4 | 2.48
 |  |  |  | 925 ± 102 | 50.6 ± 8.01 | 5.5 |  | CC(Oc1cc(-c2c[nH]c3ccccc23)cnc1N)c1cc(F)ccc1Cl (centres unmarked) [MXY-137] |  |  | 1.67 | 12.5
 |  |  |  |  | > 100 | > 10 |  | CC(Oc1cc(-c2cc3ccccc3[nH]2)cnc1N)c1cc(F)ccc1Cl (centres unmarked) [MXY-141] |  |  | 12.2 | 13.2
 |  |  |  | 3350 ± 63 | 17.57 ± 0.161 | > 10 |  | CC(Oc1cc(Nc2ccccc2)cnc1N)c1cc(F)ccc1Cl (centres unmarked) [MXY-171] |  |  | 2.11 | 2.14
 |  |  |  | 1100 ± 81 | > 100 | > 10 |  | CC(Oc1cc(Nc2ccccn2)cnc1N)c1cc(F)ccc1Cl (centres unmarked) [MXY-175] |  |  | 2.23 | 11
 |  |  |  | 145 ± 10 | 62.5 ± 4.78 | 2.34 |  | CC(Oc1cc(-c2cnn3cccnc23)cnc1N)c1cc(F)ccc1Cl (centres unmarked) [MXY-181] |  |  | 49 | > 50
 |  |  |  | 2680 ± 50 | > 100 | > 10 |  | Cc1cc(Nc2cnc(N)c(OC(C)c3cc(F)ccc3Cl)c2)nn1C (centres unmarked) [MXY-191] |  |  | 23.1 | > 50
78.8 ± 2.27 | > 10 |  | 78.8 ± 2.27 |  |  | > 10 |  | CC(Oc1cc(-c2cnn(C3CCOCC3)c2)cnc1N)c1cc(F)ccc1Cl (centres unmarked) [MXY-193] |  |  |  | 
 |  |  | 1.591 ± 0.014 |  |  | 0.089 | 6.7 ± 1 | CC(Oc1cc(-c2cnn(C3CCNCC3)c2)cnc1N)c1cc(F)ccc1Cl (centres unmarked) [WWQ-131, 4-{3-[1-(2-chloro-5-fluorophenyl)ethoxy]-2-aminopyridine}pyrazol-1-piperidine] | 9.78 | 1.33 |  | 
 |  |  |  | 442 ± 3 | > 10 | 0.511 | 442 ± 3 | CC(Oc1cc(-c2cnn(C3CCNCC3)c2)cnc1N)c1c(Cl)cccc1Cl (centres unmarked) [WWQ-133, 4-{3-[1-(2,6-dichlorophenyl)ethoxy]-2-aminopyridine}pyrazol-1-piperidine] |  |  | 15 | 0.879
 |  |  |  | 100 ± 2 | 3.537 ± 0.034 | 3.56 | 100 ± 2 | CCC(Oc1cc(-c2cnn(C3CCNCC3)c2)cnc1N)c1c(Cl)ccc(F)c1Cl (centres unmarked) [WWQ-1093-13, 4-{3-[1-(2,6-dichloro-3-fluorophenyl)propoxy]-2-aminopyridine}pyrazol-1-piperidine] |  |  | 37.3 | 7.86
 |  |  | 0.648 ± 0.044 |  |  |  |  | CC(Oc1cc(-c2cnn(C3CCNCC3)c2)cnc1N)c1c(Cl)ccc(F)c1Cl (centres unmarked) [WWQ-1093-65, 4-{3-[1-(2,6-dichloro-3-fluorophenyl)ethoxy]-2-aminopyridine}pyrazole-1-piperidine] | 11.7 | 1.49 |  | 
 |  |  |  | 844 ± 100 | 1.45 ± 0.118 | 3.37 |  | Cc1n[nH]c(C)c1-c1cnc(N)c(OC(C)c2cc(F)ccc2Cl)c1 (centres unmarked) [XFL-107] |  |  | 9.14 | 3.35
 |  |  |  | 24 ± 2 | 3.52 ± 0.605 | 0.201 |  | CC(Oc1cc(-c2cnn(C)c2)cnc1N)c1cc(F)ccc1Cl (centres unmarked) [XFL-111] |  |  | 9.05 | 7.56
 |  |  |  | > 10000 | > 100 | > 10 |  | CC(Oc1cc(-c2cnoc2)cnc1N)c1cc(F)ccc1Cl (centres unmarked) [XFL-137] |  |  | > 50 | > 10
 |  |  |  | 302.1 ± 3 | 78.6 ± 3 |  |  | CC(Oc1cc(-c2ccn[nH]2)cnc1N)c1cc(F)ccc1Cl (centres unmarked) [XFL-141] |  |  | 5.41 | 2.48
 |  |  |  | 40.8 ± 0.6 | 2.1 ± 0.344 | 0.438 |  | Cc1n[nH]cc1-c1cnc(N)c(OC(C)c2cc(F)ccc2Cl)c1 (centres unmarked) [XFL-147] |  |  | 6.15 | 4.05

Second part, the compound before the results:

Compound | IC50 (H3122 cells; [1]) [µM] | IC50 (ALK; [2]) [µM] | IC50 (H3122 cells; [2]) [µM] | IC50 (H3122 cells; [3]) [µM] | IC50 (JAK2; Table 2, read-out: JAK2 IC50) [nM] | IC50 (H3122 cells; [4]) [µM] | IC50 (ALK; Table 2) [µM] | IC50 (JAK2; [5]) [nM] | IC50 (HEL (JAK2 V617F) cells; 72 h) [µM] | IC50 (SET 2 (JAK2 V617F) cells; SET-2, 72 h) [µM] | IC50 (HEL (JAK2 V617F) cells) [µM] | IC50 (SET 2 (JAK2 V617F) cells; SET-2) [µM]
CC(Oc1cc(-c2cnn(C3CCOCC3)c2)cnc1N)c1cc(F)ccc1Cl (single isomer, unassigned) [Configuration 1] | 56.7 | 6.5 |  |  |  |  |  |  |  |  |  | 
CC(Oc1cc(-c2cnn(C3CCOCC3)c2)cnc1N)c1cc(F)ccc1Cl (single isomer, unassigned) [Configuration 2] |  | > 10 | > 100 |  |  |  |  |  |  |  |  | 
C[C@@H](Oc1cc(-c2cnn(C3CCNCC3)c2)cnc1N)c1c(Cl)ccc(F)c1Cl [Crizotinib, reference compound] |  |  |  | 0.842 ± 0.056 |  |  |  |  | 7.3 | 0.47 |  | 
CC(Oc1cc(-c2cncnc2)cnc1N)c1cc(F)ccc1Cl (centres unmarked) [MXY-032-45] |  |  |  |  | 566 ± 29 | > 100 | 3.67 |  |  |  | > 10 | > 10
CC(Oc1cc(-c2cnn(C3COC3)c2)cnc1N)c1cc(F)ccc1Cl (centres unmarked) [MXY-032-51] |  |  |  |  | 25 ± 1 | 9.91 ± 1.28 | 0.335 |  |  |  | 4.67 | 31.2
CC(Oc1cc(-c2cnn(C3CCOC3)c2)cnc1N)c1cc(F)ccc1Cl (centres unmarked) [MXY-032-53] |  |  |  |  | 27 ± 1 | 6.34 ± 1.91 | 1.24 |  |  |  | 4.54 | 44.1
CC(Oc1cc(-c2cccc(N3CCOCC3)c2)cnc1N)c1cc(F)ccc1Cl (centres unmarked) [MXY-032-55] |  |  |  |  | 528 ± 8 | 11.6 ± 6.02 | 3.89 |  |  |  | 5.99 | 18.6
CC(Oc1cc(Nc2cc3ccccc3cn2)cnc1N)c1cc(F)ccc1Cl (centres unmarked) [MXY-032-69] |  |  |  |  | > 5000 | 25.3 ± 6.24 | > 10 |  |  |  | 10.7 | > 50
CC(Oc1cc(Nc2ccc3ccccc3n2)cnc1N)c1cc(F)ccc1Cl (centres unmarked) [MXY-032-85] |  |  |  |  | > 10000 | 12 ± 2.32 | > 10 |  |  |  | 5.74 | > 50
CC(Oc1cc(Nc2nccc3ccccc23)cnc1N)c1cc(F)ccc1Cl (centres unmarked) [MXY-032-87] |  |  |  |  | > 10000 | 17.4 ± 0.25 | > 10 |  |  |  | 9.47 | > 50
CCOC(C)n1cc(-c2cnc(N)c(OC(C)c3cc(F)ccc3Cl)c2)cn1 (centres unmarked) [MXY-032-91] |  |  |  |  | 157 ± 31 | 2.08 ± 0.803 | 5.28 |  |  |  | 4.56 | 6.34
COCCCn1cc(-c2cnc(N)c(OC(C)c3cc(F)ccc3Cl)c2)cn1 (centres unmarked) [MXY-032-93] |  |  |  |  | 15 ± 1 | 1.98 ± 0.84 | 2.33 |  |  |  | 3.45 | 2.88
COCCn1cc(-c2cnc(N)c(OC(C)c3cc(F)ccc3Cl)c2)cn1 (centres unmarked) [MXY-032-95] |  |  |  |  | 11 ± 1 | 1.36 ± 0.869 | 2.36 |  |  |  | 2.34 | 3.9
CC(Oc1cc(-c2cn(C)c3ccccc23)cnc1N)c1cc(F)ccc1Cl (centres unmarked) [MXY-89] |  |  |  |  | 695 ± 2 | 6.874 ± 0.022 | 7.89 |  |  |  | 2.44 | 11
CC(Oc1cc(-c2cnn3ccccc23)cnc1N)c1cc(F)ccc1Cl (centres unmarked) [MXY-97] |  |  |  |  | 61 ± 7 | 3.3 ± 0.05 | 1.23 |  |  |  | 1.85 | 4.51
N#CC[C@H](C1CCCC1)n1cc(-c2ncnc3[nH]ccc23)cn1 [Ruxolitinib, reference compound] |  |  |  |  |  | 27.2 ± 3.39 |  |  |  |  |  | 
